According to patent US20090130223A1, “COSMETIC PREPARATION WITH AQUAPORIN STIMULATORS AND THE USE THEREOF” (priority 2006, published 2009):

Test system: aquaporin-3 mRNA in human keratinocytes
Test: AQP-3 mRNA expression in human keratinocytes by quantitative RT-PCR
Assay type: cell-based
Conditions: 24 h, 3% w/v glycerol glucoside in culture medium (450 mOsm), compared with 1% w/v glycerin, 2.25% w/v glucose, and 1.5% w/v glycerol glucoside + 0.5% w/v glycerin
Procedure: To this end, human keratinocytes were treated in triplicate in cell culture (37° C., Medium Cambrex No. CC-3158 incl. Supplement kit No. CC-4152; +0.1 mM CaCl2) for 24 h as follows: • Untreated control (corresponds to 330 mOsm, isomolar culture medium) • Addition of 1% w/v glycerin to the culture medium (corresponds to 450 mOsm, osmotic stress) • Addition of 1.5% w/v glycerol glucoside and 0.5% w/v glycerin to the culture medium (corresponds to 450 mOsm osmotic stress, mixture ratio regarding number of particles 1:1) • Addition of 3% w/v glycerol glucoside to the culture medium (corresponds to 450 mOsm, osmotic stress) • Addition of 2.25% w/v glucose to the culture medium (corresponds to 450 mOsm, osmotic stress)
The different amounts used are due to the different molecular weights of the substances. The contribution to the increase in osmolarity in the culture medium depends solely on the added particle number, and this is the same in all of the tests.
After harvest and lysis the entire RNA was isolated from the cells and the aquaporin-3 mRNA relatively contained was determined by means of quantitative RT-PCR.
The concentration indication w/v means mass per volume, wherein 1.0% w/v corresponds to one gram substance in 100 ml solution.

## Glyceryl glucoside
  expression level of the aquaporin-3 mRNA relativized on 18S rRNA (stimulating effect): better stimulating effect than classic glycerin or glucose alone or a 1:1 mixture of glycerin and glyceryl glucoside
